Measured values: patent US4555504A, “Inclusion complex of β-cyclodextrin and digoxin” (Burroughs Wellcome Co., priority 1981, dated 1985)
In brackets after ≈: the same amount, converted by molar mass.

Columns and labels:
[1] = Comparative dissolution of complexed and non-complexed digoxin (B.P. rotating basket); format: physicochemical; settings: B.P. 1980 rotating basket, deionised water (1 liter), 37° C., HPLC
Experimental: The dissolution rate of complexed (1:3 complex, Example 1) and non-complexed digoxin was determined in the British Pharmacopoeia rotating basket apparatus (B.P., 1980). The dissolution medium was deionised water (1 liter) at 37° C. A scoop containing sample (about […] of digoxin or about […] of digoxin/B-cyclodextrin complex) was added to the dissolution medium and allowed to settle to the base of the vessel. Samples (2 ml) were taken at intervals up to 60 minutes via a volumetric pippette and assayed by high performance liquid chromatography to determine cumulative percentage release of drug.

[2] = Comparative solubility of complexed and non-complexed cardiac glycosides in deionised water; format: physicochemical; settings: shaken about 8 hours, ambient temperature, HPLC
From the text: The resultant mixture was filtered through a filter paper (Whatman No. 2) and then through a membrane filter (0.02 um, Millipore), the filtrate diluted 100 fold with deionised water and the solution thus obtained assayed for cardiac glycoside in a conventional manner using high performance liquid chromatography.

[3] = background statement; cited from earlier work

With `C[C@H]1O[C@@H](O[C@H]2[C@@H](O)C[C@H](O[C@H]3[C@@H](O)C[C@H](O[C@H]4CC[C@@]5(C)[C@H](CC[C@@H]6[C@@H]5C[C@@H](O)[C@]5(C)[C@@H](C7=CC(=O)OC7)CC[C@]65O)C4)O[C@@H]3C)O[C@@H]2C)C[C@H](O)[C@@H]1O` [Digoxin, digoxin] as the molecule, how does the “T80 (time for 80% release)” value [1] read?
The value was over 60 min.

And the solubility at 8 h [2]?
The solubility at 8 h was 46 µg/mL (≈ 58.9 µM).

What about the solubility thermodynamic at 8 h ([2]; read-out: Solubility, Non-complexed (percent)) of the same molecule?
The solubility thermodynamic at 8 h was 46 µg/mL (≈ 58.9 µM).

What about the “solubility of digoxin in water” value [3] of the same molecule?
Its value is about 0.005%.
